Experimental data: patent publication US20170253607A1, “LONG-ACTING HIV PROTEASE INHIBITOR” (Shionogi & Co., Ltd., priority 2014, published 2017)

Legend:
[1] = target: HIV-1 PR (Human immunodeficiency virus type 1 group M subtype B, UniProt P04585); test: HIV-protease inhibitory activity assay (FRET peptide substrate); type: biochemical; conditions: Test Example 1
How it was run: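 Fluorescence recovery at ex 485/em 535 nm reports cleavage of a quenched FRET peptide (2 μmol/L final) by 0.83 ng enzyme over 60 minutes at room temperature. Buffer was NaAc pH 4.8 with NaCl, EDTA, DTT and Tween 20. IC50 values came from four-parameter logistic regression of % inhibition.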

[2] = Evaluation of total body clearance (CLtot), intravenous administration; type: in vivo, Sprague-Dawley (SD); conditions: rat (SD), intravenous administration 0.5-10 mg/kg; CLtot = dose/AUC
Method: Dose: Intravenous administration with designated doses was selected. (Doses were changed depending on compounds.) • 0.5-10 mg/kg (n=2-3) Preparation of dosing formulation: The dosing solution was prepared by dissolving in an adequate solvent. Administration method: The dosing solution was injected into the tail vein by a syringe with a needle Blood sampling: The blood was collected at the scheduled time and obtained the plasma. Plasma concentrations of the compound were measured by LC/MS/MS. Statistical analysis: Area under the plasma concentration-time curve (AUC) of the compound was calculated by pharmacokinetic analysis software, WinNonlin™ and CLtot was calculated by dividing the dose by AUC.

Structure (SMILES) | IC50 [1] [nM] | rat_CLt [2] [mL/min/kg]
COc1ccc(S(=O)(=O)N(CC(C)C)CC(O)C(Cc2ccc(N3CCC(Cc4ccccc4-c4sc5c(c4C(=O)O)CC(C)(C)CC5)CC3)cc2)NC(=O)OC2COC3(C)OCCC23)cc1 (stereo not shown) [Compound I-666] | 4.7 | 0.668
COc1ccc(S(=O)(=O)N(CC(C)C)CC(O)C(Cc2ccc(NCc3cccc(C)c3-c3sc4c(c3C(=O)O)CC(C)(C)CC4)cc2)NC(=O)OC2COC3(C)OCCC23)cc1 (stereo not shown) [Compound I-598] | 2.12 | 0.532
COc1ccc(S(=O)(=O)N(CC(C)C)CC(O)C(Cc2ccc(NCc3cc(F)ccc3C(=O)Nc3sc4c(c3C(=O)O)CC(C)(C)CC4)cc2)NC(=O)OC2COC3(C)OCCC23)cc1 (stereo not shown) [Compound I-625] | 5.07 | 0.0688
COc1ccc(S(=O)(=O)N(CC2CCCC2)CC(O)C(Cc2ccc(NCc3ccccc3C(=O)Nc3sc4c(c3C(=O)O)CC(C)(C)CC4)cc2)NC(=O)OC2COC3OCCC23)cc1 (stereo not shown) [Compound I-857] | 3.41 | 0.132
COc1ccc(S(=O)(=O)N(CC(C)C)CC(O)C(Cc2ccc(NCc3cc(N4CCCC4)ccc3-c3sc4c(c3C(=O)O)CC(C)(C)CC4)cc2)NC(=O)OC2COC3(C)OCCC23)cc1 (stereo not shown) [Compound I-480] | 2.36 | 0.0997
CC1(C)CCc2sc(-c3ccccc3CNc3ccc(CC(NC(=O)OC4COC5(C)OCCC45)C(O)CN(CC4CCCC4)S(=O)(=O)c4ccc5ncsc5c4)cc3)c(C(=O)O)c2C1 (stereo not shown) [Compound I-513] | 1.76 | 3.23
COc1ccc(S(=O)(=O)N(CC(C)C)CC(O)C(Cc2ccc(NCc3nc(N4CCCC4)sc3-c3sc4c(c3C(=O)O)CC(C)(C)CC4)cc2)NC(=O)OC2COC3(C)OCCC23)cc1 (stereo not shown) [Compound I-607] | 1.8 | 0.797
COc1ccc(S(=O)(=O)N(CC(C)C)CC(O)C(Cc2ccc(NCc3cc4ccccc4cc3-c3sc4c(c3C(=O)O)CC(C)(C)CC4)cc2)NC(=O)OC2COC3(C)OCCC23)cc1 (stereo not shown) [Compound I-581] | 4.02 | 0.204
COc1ccc(S(=O)(=O)N(CC(C)C)CC(O)C(Cc2ccc(N3CCC(Oc4cc(C(F)(F)F)ccc4-c4sc5c(c4C(=O)O)CC(C)(C)CC5)C3)cc2)NC(=O)OC2COC3(C)OCCC23)cc1 (stereo not shown) [Compound I-579] | 4.38 | 1.66
COc1ccc(S(=O)(=O)N(CC2CCC2)CC(O)C(Cc2ccc(NCc3ccccc3-c3sc4c(c3C(=O)O)CC(C)(C)CC4)cc2)NC(=O)OC2COC3(C)OCCC23)cc1 (stereo not shown) [Compound I-474] | 2.14 | 1.28
COc1ccc(S(=O)(=O)N(CC(C)C)CC(O)C(Cc2ccc(NCc3ccccc3-c3sc(N(C4CCCCC4)C4CCCCC4)nc3C(=O)O)cc2)NC(=O)OC2COC3(C)OCCC23)cc1 (stereo not shown) [Compound I-454] | 5.51 | 4.02
COc1ccc(S(=O)(=O)N(CC(C)C)CC(O)C(Cc2ccc(N(C)Cc3cccc(-c4sc5c(c4C(=O)O)CC(C)(C)CC5)c3C)cc2)NC(=O)OC2COC3(C)OCCC23)cc1 (stereo not shown) [Compound I-510] | 10.6 | 1.08
COc1ccc(S(=O)(=O)N(CC(C)C)CC(O)C(Cc2ccc(NCc3ccccc3-c3sc4c(c3C(=O)O)CC(C)(C)CC4)cc2)NC(=O)OC2COC3(C)OCCC23O)cc1 (stereo not shown) [Compound I-890] | 1.74 | 0.652
COc1ccc(S(=O)(=O)N(CCC(C)C)CC(O)C(Cc2ccc(NCc3ccccc3-c3sc4c(c3C(=O)O)CC(C)(C)CC4)cc2)NC(=O)OC2COC3(C)OCCC23)cc1 (stereo not shown) [Compound I-475] | 2.42 | 2.28
COc1ccc(S(=O)(=O)N(CC(C)C)CC(O)C(Cc2ccc(NCc3ccc(C)c(-c4sc5c(c4C(=O)O)CC(C)(C)CC5)c3)cc2)NC(=O)OC2COC3(C)OCCC23)cc1 (stereo not shown) [Compound I-532] | 4.14 | 0.551
COc1ccc(S(=O)(=O)N(CC(C)C)CC(O)C(Cc2ccc(N(C)CCOc3ccc(-c4sc5c(c4C(=O)O)CC(C)(C)CC5)c(C)c3)cc2)NC(=O)OC2COC3(C)OCCC23)cc1 (stereo not shown) [Compound I-519] | 8.93 | 0.429
COc1ccc(S(=O)(=O)N(CC(C)C)CC(O)C(Cc2ccc(N(C)Cc3ccc(F)cc3-c3sc4c(c3C(=O)O)CC(C)(C)CC4)cc2)NC(=O)OC2COC3(C)OCCC23)cc1 (stereo not shown) [Compound I-491] | 1.92 | 3.32
CN(Cc1ccccc1C(=O)Nc1sc2c(c1C(=O)O)CC(C)(C)CC2)c1ccc(CC(NC(=O)OC2COC3(C)OCCC23)C(O)CN(CC2CCCC2)S(=O)(=O)c2ccc3ncsc3c2)cc1 (stereo not shown) [Compound I-636] | 4.37 | 0.372

Structure (SMILES) | IC50 [1] [nM] | rat_CLt [2] [mL/min/kg]
COc1ccc(S(=O)(=O)N(CC(C)C)CC(O)C(Cc2ccc(NCc3cc4c(cc3-c3sc5c(c3C(=O)O)CC(C)(C)CC5)OCO4)cc2)NC(=O)OC2COC3(C)OCCC23)cc1 (stereo not shown) [Compound I-552] | 1.41 | 0.985
COc1ccc(S(=O)(=O)N(CC(C)C)CC(O)C(Cc2ccc(N(C)Cc3cc(N(C)C)ccc3-c3sc4c(c3C(=O)O)CC(C)(C)CC4)cc2)NC(=O)OC2COC3(C)OCCC23)cc1 (stereo not shown) [Compound I-538] | 2.86 | 0.598
COc1ccc(S(=O)(=O)N(CC(C)C)CC(O)C(Cc2ccc(N3CCC(c4ccccc4-c4sc5c(c4C(=O)O)CC(C)(C)CC5)C3)cc2)NC(=O)OC2COC3(C)OCCC23)cc1 (stereo not shown) [Compound I-522] | 13.6 | 0.144
COc1ccc(S(=O)(=O)N(CC(C)C)CC(O)C(Cc2ccc(NCc3cc(N4CCCCC4)ccc3-c3sc4c(c3C(=O)O)CC(C)(C)CC4)cc2)NC(=O)OC2COC3(C)OCCC23)cc1 (stereo not shown) [Compound I-689] | 2.01 | 0.385
COc1ccc(S(=O)(=O)N(CC(C)C)CC(O)C(Cc2ccc(NCc3cc(OC)ccc3-c3sc4c(c3C(=O)O)CC(C)(C)CC4)cc2)NC(=O)OC2COC3(C)OCCC23)cc1 (stereo not shown) [Compound I-566] | 1.61 | 0.727
COc1ccc(S(=O)(=O)N(CC(C)C)CC(O)C(Cc2ccc(NCc3c(-c4sc5c(c4C(=O)O)CC(C)(C)CC5)ccc4ccccc34)cc2)NC(=O)OC2COC3(C)OCCC23)cc1 (stereo not shown) [Compound I-531] | 6.98 | 0.0543
COc1ccc(S(=O)(=O)N(CC(C)C)CC(O)C(Cc2ccc(NCc3cnc4sccc4c3-c3sc4c(c3C(=O)O)CC(C)(C)CC4)cc2)NC(=O)OC2COC3(C)OCCC23)cc1 (stereo not shown) [Compound I-648] | 2.31 | 0.783
COc1ccc(S(=O)(=O)N(CC(O)C(Cc2ccc(NCc3ccccc3-c3sc4c(c3C(=O)O)CC(C)(C)CC4)cc2)NC(=O)OC2COC3(C)OCCC23)CC(C)(C)C)cc1 (stereo not shown) [Compound I-473] | 2.71 | 1.22
COc1ccc(S(=O)(=O)N(CC(C)C)CC(O)C(Cc2ccc(NCc3ccc(C(=O)NCc4ccc(F)cc4)cc3-c3sc4c(c3C(=O)O)CC(C)(C)CC4)cc2)NC(=O)OC2COC3(C)OCCC23)cc1 (stereo not shown) [Compound I-481] | 3.72 | 3.29
COc1ccc(S(=O)(=O)N(CC(C)C)CC(O)C(Cc2ccc(NCc3ccc4scc(C(=O)Nc5sc6c(c5C(=O)O)CC(C)(C)CC6)c4c3)cc2)NC(=O)OC2COC3(C)OCCC23)cc1 (stereo not shown) [Compound I-440] | 4.5 | 0.871
COc1ccc(S(=O)(=O)N(CC(C)C)CC(O)C(Cc2ccc(NCc3cc(-n4ccccc4=O)ccc3-c3sc4c(c3C(=O)O)CC(C)(C)CC4)cc2)NC(=O)OC2COC3(C)OCCC23)cc1 (stereo not shown) [Compound I-664] | 1.86 | 1.5
COc1ccc(S(=O)(=O)N(CC(C)C)CC(O)C(Cc2ccc(NCc3cc(OC)c(OC)cc3C(=O)Nc3sc4c(c3C(=O)O)CC(C)(C)CC4)cc2)NC(=O)OC2COC3(C)OCCC23)cc1 (stereo not shown) [Compound I-541] | 2.34 | 0.195
CC1(C)CCc2sc(NC(=O)c3ccccc3CNc3ccc(CC(NC(=O)OC4COC5(C)OCCC45)C(O)CN(CC4CCCC4)S(=O)(=O)c4ccc5c(c4)OCO5)cc3)c(C(=O)O)c2C1 (stereo not shown) [Compound I-600] | 5.07 | 0.104
COc1ccc(S(=O)(=O)N(CC(C)C)CC(O)C(Cc2ccc(NCc3ccc4nc(-c5sc6c(c5C(=O)O)CC(C)(C)CC6)sc4c3)cc2)NC(=O)OC2COC3(C)OCCC23)cc1 (stereo not shown) [Compound I-487] | 3.03 | 3.16
COc1ccc(S(=O)(=O)N(CC(C)C)CC(O)C(Cc2ccc(N(C)Cc3cc(N4CCCC4=O)ccc3-c3sc4c(c3C(=O)O)CC(C)(C)CC4)cc2)NC(=O)OC2COC3(C)OCCC23)cc1 (stereo not shown) [Compound I-584] | 2.3 | 0.77
COc1ccc(S(=O)(=O)N(CC(C)C)CC(O)C(Cc2ccc(NCc3ccccc3-c3sc4c(c3C(=O)O)CC(C)(C)CC4)cc2)NC(=O)OC2COC3OCCC23)cc1 (stereo not shown) [Compound I-852] | 1.99 | 2.25
CC1(C)CCc2sc(NC(=O)c3ccccc3CNc3ccc(CC(NC(=O)OC4COC5(C)OCCC45)C(O)CN(CC4CCCC4)S(=O)(=O)c4ccc5ncsc5c4)cc3)c(C(=O)O)c2C1 (stereo not shown) [Compound I-601] | 3.26 | 0.164
